The values below come from US6933272B1 (priority 1998, dated 2005).

Like-named read-outs stand apart in the source and are kept apart here.

For test [1], the target named is T1, insulin receptor (Homo sapiens, UniProt P06213). In words: 125I insulin binding, insulin receptors from a number of sources. As to conditions: range over receptor sources. On the set-up: host or cells: several: placental membranes, CHO.T11 cells, WGA purified receptors. The procedure: (§1) Tubes were mixed and incubated for 16 h at 4° C. After the incubation, the tubes were placed on ice and 300 μL of a 1:5 suspension of 0.4% bovine-γ-globulin in 20% polyethyleneglycol 6000 (BDH chemicals) was added to each tube, mixed thoroughly and left to incubate for 30 min on ice. The tubes were then centrifuged (3,000 g) for 30 min at 4° C., the supernatant was aspirated off and the pellet counted for radioactivity. […] Inhibition constants were estimated by graphical analysis of displacement plots or calculated using the curve fitting programs EBDA and/or LIGAND.
Target sequence in this assay (P06213 28-758 limits assumed): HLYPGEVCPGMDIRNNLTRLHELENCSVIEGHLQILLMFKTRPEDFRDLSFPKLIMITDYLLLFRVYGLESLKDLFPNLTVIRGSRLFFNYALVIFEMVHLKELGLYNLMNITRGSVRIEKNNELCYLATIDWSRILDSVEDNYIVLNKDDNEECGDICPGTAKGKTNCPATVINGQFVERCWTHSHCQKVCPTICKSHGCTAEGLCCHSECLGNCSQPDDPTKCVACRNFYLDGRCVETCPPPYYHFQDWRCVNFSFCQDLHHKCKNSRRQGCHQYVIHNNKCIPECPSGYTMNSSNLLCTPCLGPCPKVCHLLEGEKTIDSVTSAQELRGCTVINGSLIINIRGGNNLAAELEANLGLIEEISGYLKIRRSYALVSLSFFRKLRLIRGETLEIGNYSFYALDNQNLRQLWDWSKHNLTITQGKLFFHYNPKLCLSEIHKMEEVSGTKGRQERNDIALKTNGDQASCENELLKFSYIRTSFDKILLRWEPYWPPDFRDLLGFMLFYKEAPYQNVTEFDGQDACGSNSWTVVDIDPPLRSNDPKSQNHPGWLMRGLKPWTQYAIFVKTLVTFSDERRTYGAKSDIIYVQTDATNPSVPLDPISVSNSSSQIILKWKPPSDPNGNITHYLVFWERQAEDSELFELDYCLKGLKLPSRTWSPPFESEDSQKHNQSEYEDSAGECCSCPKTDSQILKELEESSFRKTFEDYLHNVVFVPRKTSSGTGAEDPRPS

Test [2] addresses T1, insulin receptor. The experiment in a line: Assays of insulin action (several biological assays, classification agonist/antagonist).
Target sequence in this assay (P06213 with tags, fused parts or gaps): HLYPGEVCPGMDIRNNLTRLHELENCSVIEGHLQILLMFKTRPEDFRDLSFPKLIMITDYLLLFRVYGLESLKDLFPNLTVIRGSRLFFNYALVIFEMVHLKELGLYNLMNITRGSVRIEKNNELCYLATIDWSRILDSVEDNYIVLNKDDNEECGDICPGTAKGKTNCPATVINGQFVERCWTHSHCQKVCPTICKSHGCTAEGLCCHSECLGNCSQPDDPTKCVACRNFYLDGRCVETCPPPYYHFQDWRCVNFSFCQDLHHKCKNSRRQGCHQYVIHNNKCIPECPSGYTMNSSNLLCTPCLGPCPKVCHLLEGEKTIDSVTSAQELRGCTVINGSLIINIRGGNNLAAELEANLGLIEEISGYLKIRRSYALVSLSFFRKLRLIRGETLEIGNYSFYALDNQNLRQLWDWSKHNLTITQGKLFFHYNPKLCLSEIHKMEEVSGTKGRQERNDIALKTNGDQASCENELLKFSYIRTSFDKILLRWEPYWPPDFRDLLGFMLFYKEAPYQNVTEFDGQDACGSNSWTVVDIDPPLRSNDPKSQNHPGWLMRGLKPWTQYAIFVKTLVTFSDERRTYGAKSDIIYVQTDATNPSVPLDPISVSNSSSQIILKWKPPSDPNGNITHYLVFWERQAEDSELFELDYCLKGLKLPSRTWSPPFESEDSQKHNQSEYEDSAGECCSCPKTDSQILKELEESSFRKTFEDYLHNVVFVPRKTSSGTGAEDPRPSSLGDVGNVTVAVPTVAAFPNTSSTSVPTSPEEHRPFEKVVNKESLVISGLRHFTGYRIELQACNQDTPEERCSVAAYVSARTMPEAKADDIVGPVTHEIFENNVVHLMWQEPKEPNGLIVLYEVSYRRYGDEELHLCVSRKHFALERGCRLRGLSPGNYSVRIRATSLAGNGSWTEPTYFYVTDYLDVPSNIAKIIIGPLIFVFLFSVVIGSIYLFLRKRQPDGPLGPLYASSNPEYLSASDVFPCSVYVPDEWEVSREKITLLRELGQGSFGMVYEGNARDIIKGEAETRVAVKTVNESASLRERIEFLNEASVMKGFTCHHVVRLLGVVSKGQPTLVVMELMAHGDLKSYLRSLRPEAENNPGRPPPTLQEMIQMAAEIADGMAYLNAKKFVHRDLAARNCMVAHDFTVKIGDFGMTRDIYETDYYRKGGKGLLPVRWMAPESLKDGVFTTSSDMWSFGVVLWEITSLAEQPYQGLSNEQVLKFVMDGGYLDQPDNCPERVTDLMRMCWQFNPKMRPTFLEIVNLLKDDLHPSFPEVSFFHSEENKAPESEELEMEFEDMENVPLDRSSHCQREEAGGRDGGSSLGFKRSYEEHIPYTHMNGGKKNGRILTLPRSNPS
In test [3] the target is insulin receptor β-subunit associated tyrosine kinase activity (Homo sapiens, UniProt P06213). In words: Protein tyrosine kinase (PTK) assay, 32P incorporation into FYF peptide. In kind it is biochemical. The following applies: for effect of compound alone on 32P incorporation into FYF peptide: basal, absence of insulin; for Ki: read-out: estimated inhibition constant, PTK assay. The procedure:
Protein tyrosine kinase activity was determined using a modification of the method of N. Konstantopoulos (22).
The reaction was allowed to proceed for 20 minutes at 30° C. before it was terminated by the addition of 12.5 μL of 7.5 M guanidine hydrochloride. An aliquot (10 μL) of the reaction mixture was then spotted onto a Whatman 81 phosphocellulose paper (15 mm×15 mm), washed three times (2 min per wash) in about 50 mL of 30% acetic acid, 0.05% orthophosphoric acid then finally, with one wash in about 200 mL of water. The papers were then rinsed briefly (15 sec) in 95% ethanol, dried, suspended in 2.5 mL of scintillation fluid (Beckman) and counted for radioactivity in a Beckman β-counter.

A further test relates to 3T3L1 adipocyte cells. The experiment in a line: Glucose transport (3H-deoxyglucose uptake) in 3T3L1 adipocyte cells. Format: cell-based, mouse. The procedure:
Glucose transport was determined using a modification of the method of S. J. Isakoff et at. (23). The assay involved measuring the effect of compounds on the uptake of ^3H-deoxyglucose into 3T3L1 adipocyte cells.
The cell line, 3T3-L1, derived from mouse embryo fibroblasts, was grown in 250 mL tissue culture flasks containing 15 mL medium made up of DMEM (Dulbecco's modified Eagle's medium containing glutamine, 2 mM; sodium bicarbonate, 30 mM; penicillin 71.5 mg/litre; streptomycin, 152.5 mg/litre) supplemented with 10% foetal calf serum (FCS), pH 7.4. Cells were maintained in a humidified incubator at 37° C. in a 5% CO2 environment. The medium was changed every 3 days and the cells were split when they were about 70-80% confluent.
3T3-L1 fibroblast cells from one tissue culture flask were suspended in 50 mL of DMEM media containing 10% FCS and 0.5 mL of this suspension were seeded into each well of two 48-well tissue culture plates. The differentiation of the cells was initiated when the fibroblast cells were fully confluent. Routinely, differentiation was induced on cells that had been growing in tissue culture plates for 4-5 days. […] The cells were subsequently maintained with DMEM medium containing 10% FCS.
One day prior to the glucose transport assay, cell medium was replaced with DMEM containing 10% charcoal-treated foetal calf serum (CTFCS). On the day of the assay, the medium was aspirated and each well was washed with 1 mL of 25 mM Hepes, pH 7.4 containing 0.9% NaCl (NaCl-HEPES). […] Ten microlitres of NaCl-HEPES containing 3 mM 2-deoxy-D-glucose and 0.1 μCi 2-deoxy-D-[1-^3H]glucose were then added. Following a 10 min incubation at 37° C., the medium was aspirated off and the wells rapidly washed three times with 1 mL of ice-cold 50 mM phosphate, pH 7.5 containing 150 mM NaCl (PBS) and 10 mM glucose. Two hundred microlitres of 3% Triton X-100 was then added to each well and left to incubate for a minimum of 10 minutes. One hundred microlitres of the solubilised cells was then added to 2.5 mL of liquid scintillation fluid and counted for radioactivity in a Beckman β-counter.

The target in test [4] is T1, insulin receptor. The experiment in a line: 125I insulin binding to human placental plasma membranes (HPPM). Also noted: Human Placental Plasma Membranes—50 mM Hepes, pH 7.8 @ 4 C containing 100 U/mL Bacitracin; from tissue; host or cells: human placenta, plasma membranes. On the procedure: as §1
Target sequence in this assay (P06213 28-758 limits assumed): as the sequence (P06213 28-758 limits assumed) above
Test [5] addresses T1, insulin receptor. In words: 125I insulin binding to wheat germ agglutinin purified insulin receptors (WGA.IR). On the set-up: host or cells: several: placental membranes, CHO.T11 cells, WGA purified receptors. As to conditions: LIGAND 1-site fit. On the procedure:
as §1
Target sequence in this assay (P06213 28-758 limits assumed): as above

Test [6] has as its target T1, insulin receptor. In words: 125I insulin binding to CHO.T11 cells. Also noted: expressed in transfected cells. On the procedure: as §1
Target sequence in this assay (P06213 28-758 limits assumed): as above
For a further test, the target named is IGF-1 receptor (Homo sapiens, UniProt P08069). The experiment in a line: 125I IGF-1 binding to human placental plasma membranes (HPPM). Also noted: from tissue; host or cells: human placenta, plasma membranes. The following applies: HPPM; read-out: Ki, competition for 125I IGF-1 binding.
Chain of IGF-1 receptor (P08069 31-736 limits assumed): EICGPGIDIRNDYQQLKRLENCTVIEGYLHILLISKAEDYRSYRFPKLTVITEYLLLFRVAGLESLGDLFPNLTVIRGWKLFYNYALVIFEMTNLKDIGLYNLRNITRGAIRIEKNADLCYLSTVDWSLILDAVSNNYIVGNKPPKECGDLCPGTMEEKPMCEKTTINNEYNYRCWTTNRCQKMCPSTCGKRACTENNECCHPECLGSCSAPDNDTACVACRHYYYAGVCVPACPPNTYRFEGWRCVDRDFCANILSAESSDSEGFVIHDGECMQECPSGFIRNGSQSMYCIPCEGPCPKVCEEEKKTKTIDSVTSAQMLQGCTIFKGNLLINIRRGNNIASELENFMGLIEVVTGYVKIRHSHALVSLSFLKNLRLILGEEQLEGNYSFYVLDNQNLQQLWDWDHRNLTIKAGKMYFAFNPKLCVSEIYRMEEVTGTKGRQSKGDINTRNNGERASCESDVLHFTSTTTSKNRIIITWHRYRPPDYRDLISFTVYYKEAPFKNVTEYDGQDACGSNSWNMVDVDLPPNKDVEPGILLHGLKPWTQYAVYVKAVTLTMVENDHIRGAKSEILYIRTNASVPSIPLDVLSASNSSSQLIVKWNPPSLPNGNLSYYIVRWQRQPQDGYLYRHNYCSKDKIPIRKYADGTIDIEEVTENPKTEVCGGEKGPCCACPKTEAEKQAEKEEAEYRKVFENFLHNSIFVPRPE
[7] abbreviates: 3T3L1 cells, 2 nM insulin; read-out: estimated inhibition constant (Ki), glucose transport assay.
Where [8] appears, read: read-out: estimated IC50, 32P incorporation into FYF peptide.
The mark [9] stands for this setting: Mus musculus, 3T3-L1; read-out: estimated IC50, glucose transport.
The mark [10] stands for this setting: human placental plasma membranes, 16 h at 4° C.

Chain of insulin receptor β-subunit associated tyrosine kinase activity (P06213 28-758 limits assumed): as the sequence (P06213 28-758 limits assumed) above

As to `CCCc1c(OCCCOc2cc(O)c(-c3cc[nH]n3)cc2CC)ccc2c1OC(C(=O)O)CC2` (stereo not shown) [IM 132, 3,4-dihydro-8-propyl-7-[[3-[2-ethyl-5-hydroxy-4-(1H-pyrazol-3-yl)phenoxy]propyl]oxy]-2H-1-benzopyran-2-carboxylic acid], the Ki was 200 to 450 µM on insulin receptor [1], 360 µM in test [3] and 64 µM in the test with 3T3L1 adipocyte cells (setting [7]). The “classification of insulin action” value on insulin receptor [2] is “antagonists of insulin action”. The “effect of compound alone on 32P incorporation into FYF peptide” value in test [3] is on record as “does not increase ^32P incorporation into FYF peptide”. Further, the “effect of compound alone on glucose transport” value (from here on “effect … on glucose transport”) with 3T3L1 adipocyte cells (basal, no insulin) was “does not increase ^32P incorporation into FYF peptide or activate glucose transport”. In addition, the “effect on insulin stimulated glucose transport” value with 3T3L1 adipocyte cells (in presence of insulin (2 nM)) is “significant synergism with insulin”.

As for `CCCc1c(OCCCOc2cc(O)c(C(C)=O)cc2CC)ccc2c1OC(C(=O)O)CC2` (stereo not shown) [IM 071, 7-[3-(4-acetyl-2-ethyl-5-hydroxyphenoxy)propoxy]-3,4-dihydro-8-propyl-2H-1-benzopyran-2-carboxylic acid], the “classification of insulin action” value on insulin receptor [2] is “antagonists of insulin action”.

Turning to `CCCc1c(OCc2ccc3ccccc3n2)ccc2c1OC(C(=O)O)CC2` (stereo not shown) [IM 143, 8-propyl-7-(quinol-2′-ylmethoxy)-3,4-dihydro-2H-1-benzopyran-2-carboxylic acid], the Ki at insulin receptor [4] (human placental plasma membranes) is approximately 2000 µM; with 3T3L1 adipocyte cells (setting [7]) it was 40 µM. In addition, the “classification of insulin action” value on insulin receptor [2] is recorded as “antagonists of insulin action”. Further, in the test on 3T3L1 adipocyte cells (basal, no insulin), the “effect … on glucose transport” value is “does not stimulate glucose transport activity”.

`CCCN(CCC)c1c([N+](=O)[O-])cc(S(=O)(=O)NS(=O)(=O)C(F)(F)F)cc1[N+](=O)[O-]` [IM 145, N-(trifluoromethanesulfonyl)-3,5-dinitro-4-(N′,N′-dipropylamino)benzenesulfonamide]: on insulin receptor [4], the Ki was approximately 1000 µM. The “classification of insulin action” value at insulin receptor [2] is given as “antagonists of insulin action”. For the same compound, in test [3], the IC50 amounted to 90 µM and the “effect of compound alone on 32P incorporation into FYF peptide” value is “does not stimulate PTK”. The IC50 in the test on 3T3L1 adipocyte cells (Mus musculus, 3T3-L1, read-out: estimated IC50, glucose transport) was 60 µM. The “effect … on glucose transport” value with 3T3L1 adipocyte cells (basal, no insulin) is “does not stimulate PTK or glucose transport activity”.

Consider `O=C(O)c1cc2ccccc2c(Cc2c(O)c(C(=O)O)cc3ccccc23)c1O` [IM 025, 4,4′-Methylenebis[3-hydroxy-2-naphthalenecarboxylic acid]], for which the Ki was 108 ± 32 µM at insulin receptor [5], 100 to 400 µM at insulin receptor [1] and 137 to 337 µM on insulin receptor [6]. In addition, the “classification of insulin action” value at insulin receptor [2] is listed as “antagonists of insulin action”. In addition, the values for the IC50 (in test [3] (setting [8]); with 3T3L1 adipocyte cells (setting [9])) were 150 µM and 170 µM, respectively.

With `CCCc1c(OCCCOc2cc(O)c(OCC)cc2CC)ccc2c1OC(C(=O)O)CC2` (stereo not shown) [IM 134, 3,4-dihydro-8-propyl-7-[[3-[2-ethyl-5-hydroxy-4-ethoxyphenoxy]propyl]oxy]-2H-1-benzopyran-2-carboxylic acid], the results for the Ki (at insulin receptor [4] (setting [10]); in test [3]; with 3T3L1 adipocyte cells (setting [7])) were 900 µM, 300 to 400 µM and 60 to 110 µM, respectively. Further, the “classification of insulin action” value at insulin receptor [2] is “antagonists of insulin action”. Moreover, the “effect of compound alone on 32P incorporation into FYF peptide” value in test [3] is given as “does not increase ^32P incorporation into FYF peptide”. Besides, the “effect … on glucose transport” value in the test with 3T3L1 adipocyte cells (basal, no insulin) was “does not increase ^32P incorporation into FYF peptide or glucose transport”.

Regarding `O=S(=O)(NS(=O)(=O)C(F)(F)F)c1cc(Cl)cc(Cl)c1OS(=O)(=O)c1cc(Cl)cc(Cl)c1O` [IM 103, 2,4-dichloro-6-(N-(trifluoromethanesulfonyl))sulfamoylphenyl 3,5-dichloro-2-hydroxybenzenesulfonate], the Ki turned out to be 59 µM at IGF-1 receptor, 83 µM on insulin receptor [5], 137 ± 45 µM at insulin receptor [4] (setting [10]) and 132 ± 29 µM at insulin receptor [6]. Besides, on insulin receptor [2], the “classification of insulin action” value is given as “agonists of insulin action”. Also, the EC50 in the test with 3T3L1 adipocyte cells (Mus musculus, 3T3-L1; compound alone; read-out: apparent EC50, stimulation of glucose transport) is 45 ± 7 µM. Besides, in the test on 3T3L1 adipocyte cells (compound alone, relative to maximal dose of insulin (100 nM)), the “efficacy compared with insulin, glucose transport” value is reported as “about 15%”. The “concentration at apex of bi-phasic dose response curve” value in the test on 3T3L1 adipocyte cells (glucose transport) stood at 110 µM. Further, the “effect on insulin stimulated glucose transport” value in the test with 3T3L1 adipocyte cells (in presence of insulin (2 nM)) is listed as “abolishes the insulin stimulation of glucose transport in a dose dependent manner”.

In the case of `CCCc1c(COc2ccc3c(=O)cc(C(=O)O)oc3c2CCC)ccc(C(C)=O)c1O` [IM 127, 7-[(4-acetyl-3-hydroxy-2-propylphenyl)methoxy]-4-oxo-8-propyl-4H-1-benzopyran-2-carboxylic acid], the Ki on insulin receptor [5] was 295 µM; on insulin receptor [4] (setting [10]), 140 to 320 µM; in the test on 3T3L1 adipocyte cells (setting [7]), 60 µM. For the same compound, the “classification of insulin action” value on insulin receptor [2] is “antagonists of insulin action”.

`CCCc1c(OCCCOc2cc(O)c(-c3ccc(F)cc3)cc2CC)ccc2c1OC(C(=O)O)CC2` (stereo not shown) [IM 171, 8-propyl-7-[3-[4-(4-fluorophenyl)-2-ethyl-5-hydroxyphenoxy]propoxy]-3,4-dihydro-2H-1-benzopyran-2-carboxylic acid] registered a Ki at insulin receptor [4] (setting [10]) of 370 µM. On insulin receptor [2], the “classification of insulin action” value is recorded as “antagonists of insulin action”. Further, the “effect of compound alone on 32P incorporation into FYF peptide” value in test [3] is reported as “does not increase ^32P incorporation into FYF peptide”. Besides, the results for the IC50 (in test [3] (setting [8]); with 3T3L1 adipocyte cells (setting [9])) were 250 µM and 80 µM, respectively. The “effect … on glucose transport” value in the test with 3T3L1 adipocyte cells (basal, no insulin) is reported as “does not increase ^32P incorporation into FYF peptide or activate glucose transport”.

`CCCc1c(OCc2ccc3ccccc3c2)ccc2c1OC(C(=O)O)CC2` (stereo not shown) [IM 144, 7-(naphth-2′-ylmethoxy)-8-propyl-3,4-dihydro-2H-1-benzopyran-2-carboxylic acid]: the Ki at insulin receptor [4] (setting [10]) was 900 µM; in test [3], 130 µM; in the test with 3T3L1 adipocyte cells (setting [7]), 125 µM. The “classification of insulin action” value on insulin receptor [2] is reported as “antagonists of insulin action”. Besides, the “effect of compound alone on 32P incorporation into FYF peptide” value in test [3] is listed as “does not increase ^32P incorporation into FYF peptide”. Further, in the test on 3T3L1 adipocyte cells (basal, no insulin), the “effect … on glucose transport” value is given as “does not increase ^32P incorporation into FYF peptide or activate glucose transport”.
